From paper PMC9671096 (Molecular pharmaceutics, 2021)
Where a SMILES comes first, the peptide text is derived from it. The star is where a group is joined. Cbz = O=C(OCc1ccccc1)*

Experiments:
[1] = biological target: HiBiT-GPER (Homo sapiens, UniProt Q99527); format: cell-based; conditions: for effect on UI-EP001/UI-EP002-mediated degradation of HiBiT-GPER: with 100 μM UI-EP001 or UI-EP002, 1 hour, MG132 10 μM, chloroquine 100 μM, E2 or aldosterone 100 nM-100 μM
[2] = biological target: T1, HiBiT-ERα (Homo sapiens, UniProt P03372); format: cell-based; conditions: for effect on UI-EP001/UI-EP002-mediated degradation of HiBiT-ERα: with 100 μM UI-EP001 or UI-EP002, 1 hour, MG132 10 μM, chloroquine 100 μM, E2 or aldosterone 100 nM-100 μM
T1 sequence (P03372 1-595): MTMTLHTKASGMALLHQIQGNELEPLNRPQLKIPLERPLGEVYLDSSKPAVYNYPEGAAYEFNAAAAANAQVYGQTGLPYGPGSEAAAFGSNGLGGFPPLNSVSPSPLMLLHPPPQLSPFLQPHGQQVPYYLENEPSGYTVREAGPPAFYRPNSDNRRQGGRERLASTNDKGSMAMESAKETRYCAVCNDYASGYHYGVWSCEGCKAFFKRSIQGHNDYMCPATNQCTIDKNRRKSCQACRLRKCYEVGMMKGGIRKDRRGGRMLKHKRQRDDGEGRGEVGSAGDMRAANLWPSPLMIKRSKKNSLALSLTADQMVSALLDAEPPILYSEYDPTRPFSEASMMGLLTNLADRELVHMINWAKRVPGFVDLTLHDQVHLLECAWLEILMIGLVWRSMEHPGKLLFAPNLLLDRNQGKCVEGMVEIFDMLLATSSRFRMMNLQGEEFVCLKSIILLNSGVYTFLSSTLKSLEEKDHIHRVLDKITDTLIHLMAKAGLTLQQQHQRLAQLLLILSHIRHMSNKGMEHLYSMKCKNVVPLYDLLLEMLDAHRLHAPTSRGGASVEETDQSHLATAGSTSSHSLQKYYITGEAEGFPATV

[3] = biological target: T2, GPER (Homo sapiens, UniProt Q99527); assay: Intact cell competitive binding assay with E2-FITC tracer; conditions: intact SKBR3 cells, concentrations as high as 10 μM
T2 sequence (Q99527 whole entry): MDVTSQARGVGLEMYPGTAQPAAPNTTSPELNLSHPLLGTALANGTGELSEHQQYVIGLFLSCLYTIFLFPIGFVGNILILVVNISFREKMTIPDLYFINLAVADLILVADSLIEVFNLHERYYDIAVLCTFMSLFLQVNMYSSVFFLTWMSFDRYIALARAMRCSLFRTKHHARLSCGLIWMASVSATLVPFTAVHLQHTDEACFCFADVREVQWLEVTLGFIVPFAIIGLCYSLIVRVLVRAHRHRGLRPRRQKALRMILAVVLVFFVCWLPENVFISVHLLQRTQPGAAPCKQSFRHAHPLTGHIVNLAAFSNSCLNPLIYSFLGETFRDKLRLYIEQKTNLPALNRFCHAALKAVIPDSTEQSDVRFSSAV

[4] = biological target: T3, ERα (Homo sapiens, UniProt P03372); assay: Immunostaining of endogenous ERα in MCF-7 cells; format: cell-based; conditions: 1 hour
T3 sequence (P03372 1-595): T1 sequence (P03372 1-595)

[5] = biological target: ERβ (Homo sapiens, UniProt Q92731); assay: Immunostaining of endogenous ERβ in MCF-7 cells; format: cell-based; conditions: 1 hour
Chain of ERβ (Q92731 whole entry): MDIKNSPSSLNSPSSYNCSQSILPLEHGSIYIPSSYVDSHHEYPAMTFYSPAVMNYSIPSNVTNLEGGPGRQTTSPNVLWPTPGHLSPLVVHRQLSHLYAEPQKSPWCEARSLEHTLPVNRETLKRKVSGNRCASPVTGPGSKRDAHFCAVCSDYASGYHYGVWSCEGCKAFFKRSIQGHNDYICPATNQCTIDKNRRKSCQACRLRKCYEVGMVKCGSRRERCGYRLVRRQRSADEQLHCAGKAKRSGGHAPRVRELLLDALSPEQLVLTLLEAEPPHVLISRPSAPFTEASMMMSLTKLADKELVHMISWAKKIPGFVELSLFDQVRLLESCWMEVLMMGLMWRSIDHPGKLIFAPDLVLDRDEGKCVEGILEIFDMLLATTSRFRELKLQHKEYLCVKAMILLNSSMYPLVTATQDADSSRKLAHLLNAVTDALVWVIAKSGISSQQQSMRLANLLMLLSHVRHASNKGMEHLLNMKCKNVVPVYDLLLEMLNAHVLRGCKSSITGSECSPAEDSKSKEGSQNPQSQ

[6] = biological target: T2, GPER; assay: Immunostaining of endogenous GPER in MCF-7 cells; format: cell-based; conditions: 1 hour
[7] = tested on: MCF-7; assay: Cell cycle analysis; format: cell-based, human; conditions: MCF-7, 10 μM, 24 hours
[8] = tested on: SKBR3; assay: Cell cycle analysis; format: cell-based, human; conditions: SKBR3, 10 μM, 24 hours
[9] = tested on: HCC-1806; assay: Cell cycle analysis; format: cell-based, human; conditions: HCC-1806, 10 μM, 24 hours
[10] = tested on: MDA-MB-231; assay: Cell cycle analysis; format: cell-based, human; conditions: MDA-MB-231, 10 μM, 24 hours
[11] = tested on: ERs; format: binding, human; conditions: IC50 of 17β-E2 divided by IC50 of test compound; MCF-7 cytosol

Chain of HiBiT-GPER (Q99527 whole entry): as the sequence (Q99527 whole entry) above

With `CC(C)C[C@@H](C=O)NC(=O)[C@H](CC(C)C)NC(=O)[C@H](CC(C)C)NC(=O)OCc1ccccc1` [MG132] (Cbz-Leu-Leu-Leu-aldehyde) as the compound, how does the “effect on UI-EP001/UI-EP002-mediated degradation of HiBiT-GPER” value (from here on “effect … of HiBiT-GPER”) [1] read?
The value was “reversed”.

And the “effect on UI-EP001/UI-EP002-mediated degradation of HiBiT-ERα” value [2]?
The value was “reversed”.

What does the source list for `Cc1ncsc1-c1ccc(CNC(=O)C2CC(O)CN2C(=O)C(NC(=O)COCCOCCOCCOCC(=O)O)C(C)(C)C)cc1` (centres unmarked) [Partial PROTAC]?
competition for E2-FITC binding to GPER [3]: unable to compete; decrease of HiBiT-GPER ([1]; 100 μM, 1 hour): did not show any significant decrease; receptor present following treatment ([1]; 100 μM, 8 hrs, text does not say which receptor (HiBiT-GPER or HiBiT-ER)): 83%; decrease of HiBiT-ERα ([2]; 100 μM, 1 hour): did not show any significant decrease; reduction of nuclear ERα [4]: did not impact; reduction of nuclear ERβ [5]: did not impact; reduction of intracellular GPER [6]: did not impact; cell cycle distribution shift (G2/M arrest) [7]: much less significant shift; cell cycle distribution shift (G2/M arrest) [8]: much less significant shift; cell cycle distribution shift (G2/M arrest) [9]: much less significant shift; cell cycle distribution shift (G2/M arrest) [10]: much less significant shift

For `C[C@]12CCC(=O)C=C1CC[C@@H]1[C@@H]2[C@@H](O)C[C@]2(C=O)[C@@H](C(=O)CO)CC[C@@H]12` [aldosterone], which “effect … of HiBiT-GPER” value [1] is on record?
Its value is “not aldosterone was capable of blocking”.

And the “effect on UI-EP001/UI-EP002-mediated degradation of HiBiT-ERα” value [2]?
The value was “not aldosterone was capable of blocking”.

How did the “effect … of HiBiT-GPER” value [1] turn out when `CCN(CC)CCCC(C)Nc1ccnc2cc(Cl)ccc12` (centres unmarked) [chloroquine, chloroquine diphosphate] was run?
Its value is “had no such effect”.

How did the “ERs RBA%” value [11] turn out when `C[C@]12CC[C@@H]3c4ccc(O)cc4CC[C@H]3[C@@H]1CC[C@@H]2O` [Estradiol, 17β-estradiol] was run?
Its value is 100.0%.
